Results from patent US6506772B1, “Substituted [1,2,4]triazolo[1,5a]pyridine derivatives with activity as adenosine receptor ligands” (Hoffmann-La Roche Inc., priority 2000, dated 2003).

Experiments:
[1] = target: T1, human adenosine A2A receptor (Homo sapiens, UniProt P29274); test: Human adenosine A2A receptor [3H]-SCH-58261 binding assay; conditions: for selectivity (A1/A2a): ratio KiHA1 divided by KiHA2A; for Ki: recombinant human A2A in CHO cell membranes, [3H]-SCH-58261, Cheng-Prussoff, read-out: Ki hA2A
T1 construct: expressed in transfected cells; host or cells: CHO cells, Semliki Forest virus expression system; membrane preparation

[2] = target: T2, HA1 adenosine receptor (Homo sapiens, UniProt P30542); test: Human adenosine A1 receptor affinity (Ki hA1); type: binding
T2 sequence (P30542 1-326): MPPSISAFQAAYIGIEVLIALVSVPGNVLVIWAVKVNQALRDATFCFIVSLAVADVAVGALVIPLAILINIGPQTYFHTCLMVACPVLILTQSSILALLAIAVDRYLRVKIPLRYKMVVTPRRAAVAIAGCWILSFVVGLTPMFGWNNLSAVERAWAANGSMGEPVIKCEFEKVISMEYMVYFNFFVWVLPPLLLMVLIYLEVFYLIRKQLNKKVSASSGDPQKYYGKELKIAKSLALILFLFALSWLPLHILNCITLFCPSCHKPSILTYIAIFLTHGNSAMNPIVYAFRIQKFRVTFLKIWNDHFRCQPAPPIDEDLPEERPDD

T1 sequence (P29274 whole entry): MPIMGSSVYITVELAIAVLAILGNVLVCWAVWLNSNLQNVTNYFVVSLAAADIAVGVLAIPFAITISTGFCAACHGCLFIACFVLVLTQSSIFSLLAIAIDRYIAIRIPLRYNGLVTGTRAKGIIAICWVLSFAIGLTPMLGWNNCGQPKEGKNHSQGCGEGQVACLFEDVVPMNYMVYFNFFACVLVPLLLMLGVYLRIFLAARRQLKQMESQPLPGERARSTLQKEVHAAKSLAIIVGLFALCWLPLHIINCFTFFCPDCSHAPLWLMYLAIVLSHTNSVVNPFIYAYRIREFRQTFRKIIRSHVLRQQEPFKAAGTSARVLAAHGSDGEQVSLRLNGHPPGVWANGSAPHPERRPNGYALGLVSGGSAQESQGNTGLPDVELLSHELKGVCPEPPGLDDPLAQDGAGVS

Row | selectivity (A1/A2a) [1] | Ki [1] [nM] | Ki [2] [nM] | Compound
1 | 51.2 | 34.7 | 1780 | CC(=O)N(C)C1CCN(C(=O)c2cc(N)n3nc(-c4ccc(Br)o4)nc3c2)C1 (stereo not drawn) [Example 392, N-{1-[5-Amino-2-(5-bromo-furan-2-yl)-[1,2,4]triazolo[1,5-a]pyridine-7-carbonyl]-pyrrolidin-3-yl}-N-methyl-acetamide]
2 | 32.9 | 2.9 | 95.3 | CCC1CCC(C)N(C(=O)c2cc(N)n3nc(-c4ccc(Br)o4)nc3c2)C1 (stereo not drawn) [Example 393, [5-Amino-2-(5-bromo-furan-2-yl)-[1,2,4]triazolo[1,5-a]pyridin-7-yl]-(5-ethyl-2-methyl-piperidin-1-yl)-methanone]
3 | 37.9 | 11 | 417 | NC(=O)C1CCCN(C(=O)c2cc(N)n3nc(-c4ccc(Br)o4)nc3c2)C1 (stereo not drawn) [Example 394, 1-[5-Amino-2-(5-bromo-furan-2-yl)-[1,2,4]triazolo[1,5-a]pyridine-7-carbonyl]-piperidine-3-carboxylic acid amide]
4 | 44 | 6.7 | 295 | COCCN(C)C(=O)c1cc(N)n2nc(-c3ccc(Br)o3)nc2c1 [Example 395, 5-Amino-2-(5-bromo-furan-2-yl)-[1,2,4]triazolo[1,5-a]pyridine-7-carboxylic acid (2-methoxy-ethyl)-methyl-amide]
5 | 48.7 | 3.5 | 170 | CCN(CCOC)C(=O)c1cc(N)n2nc(-c3ccc(Br)o3)nc2c1 [Example 396, 5-Amino-2-(5-bromo-furan-2-yl)-[1,2,4]triazolo[1,5-a]pyridine-7-carboxylic acid ethyl-(2-methoxy-ethyl)-amide]
6 | 18.4 | 298 | 5490 | COCCN(C)C(=O)c1cc(N)n2nc(-c3nccs3)nc2c1 [Example 397, 5-Amino-2-thiazol-2-yl-[1,2,4]triazolo[1,5-a]pyridine-7-carboxylic acid (2-methoxy-ethyl)-methyl-amide]
7 | 53.3 | 83.7 | 4460 | COC[C@@H]1CCCN1C(=O)c1cc(N)n2nc(-c3nccs3)nc2c1 [Example 400, (5-Amino-2-thiazol-2-yl-[1,2,4]triazolo[1,5-a]pyridin-7-yl)-(S-2-methoxymethyl-pyrrolidin-1-yl)-methanone]
8 | 66.4 | 51.9 | 3440 | COC[C@H]1CCCN1C(=O)c1cc(N)n2nc(-c3nccs3)nc2c1 [Example 401, (5-Amino-2-thiazol-2-yl-[1,2,4]triazolo[1,5-a]pyridin-7-yl)-(R-2-methoxymethyl-pyrrolidin-1-yl)-methanone]
9 | 13.3 | 94.3 | 1250 | CCC1CCC(C)N(C(=O)c2cc(N)n3nc(-c4nccs4)nc3c2)C1 (stereo not drawn) [Example 404, (5-Amino-2-thiazol-2-yl-[1,2,4]triazolo[1,5-a]pyridin-7-yl)-(5-ethyl-2-methyl-piperidin-1-yl)-methanone]
10 | 23.2 | 43.3 | 1000 | CC(C)CN(CC(C)C)C(=O)c1cc(N)n2nc(-c3nccs3)nc2c1 [Example 405, 5-Amino-2-thiazol-2-yl-[1,2,4]triazolo[1,5-a]pyridine-7-carboxylic acid diisobutylamide]
11 | 26.8 | 147 | 3930 | CCN(C)C(=O)c1cc(N)n2nc(-c3ccccn3)nc2c1 [Example 406, 5-Amino-2-pyridin-2-yl-[1,2,4]triazolo[1,5-a]pyridine-7-carboxylic acid ethyl-methyl-amide]
12 | 26.5 | 69.1 | 1830 | C#CCN(C)C(=O)c1cc(N)n2nc(-c3ccccn3)nc2c1 [Example 407, 5-Amino-2-pyridin-2-yl-[1,2,4]triazolo[1,5-a]pyridine-7-carboxylic acid methyl-prop-2-ynyl-amide]
13 | 14.9 | 91.8 | 1370 | Nc1cc(C(=O)N2CC=CC2)cc2nc(-c3ccccn3)nn12 [Example 408, (5-Amino-2-pyridin-2-yl-[1,2,4]triazolo[1,5-a]pyridin-7-yl)-(2,5-dihydro-pyrrol-1-yl)-methanone]
14 | 16.5 | 99.8 | 1650 | C=CCN(C)C(=O)c1cc(N)n2nc(-c3ccccn3)nc2c1 [Example 409, 5-Amino-2-pyridin-2-yl-[1,2,4]triazolo[1,5-a]pyridine-7-carboxylic acid allyl-methyl-amide]
15 | 22.6 | 62.3 | 1410 | CC(C)N(C)C(=O)c1cc(N)n2nc(-c3ccccn3)nc2c1 [Example 411, 5-Amino-2-pyridin-2-yl-[1,2,4]triazolo[1,5-a]pyridine-7-carboxylic acid isopropyl-methyl-amide]
16 | 25.4 | 119 | 3020 | CCCN(C)C(=O)c1cc(N)n2nc(-c3ccccn3)nc2c1 [Example 412, 5-Amino-2-pyridin-2-yl-[1,2,4]triazolo[1,5-a]pyridine-7-carboxylic acid methyl-propyl-amide]
17 | 37.8 | 37.8 | 1430 | CC1CCCN1C(=O)c1cc(N)n2nc(-c3ccccn3)nc2c1 (stereo not drawn) [Example 413, (5-Amino-2-pyridin-2-yl-[1,2,4]triazolo[1,5-a]pyridin-7-yl)-(2-methyl-pyrrolidin-1-yl)-methanone]
18 | 15.8 | 56 | 885 | CCN(C(=O)c1cc(N)n2nc(-c3ccccn3)nc2c1)C(C)C [Example 414, 5-Amino-2-pyridin-2-yl-[1,2,4]triazolo[1,5-a]pyridine-7-carboxylic acid ethyl-isopropyl-amide]
19 | 3.6 | 75.4 | 274 | CC1C=CC(C)N1C(=O)c1cc(N)n2nc(-c3ccccn3)nc2c1 (stereo not drawn) [Example 415, (5-Amino-2-pyridin-2-yl-[1,2,4]triazolo[1,5-a]pyridin-7-yl)-(2,5-dimethyl-2,5-dihydro-pyrrol-1-yl)-methanone]
20 | 17.4 | 48.1 | 835 | C=CCN(CC=C)C(=O)c1cc(N)n2nc(-c3ccccn3)nc2c1 [Example 416, 5-Amino-2-pyridin-2-yl-[1,2,4]triazolo[1,5-a]pyridine-7-carboxylic acid diallylamide]
21 | 31.5 | 16.9 | 532 | Nc1cc(C(=O)N2CCCCCC2)cc2nc(-c3ccccn3)nn12 [Example 417, (5-Amino-2-pyridin-2-yl-[1,2,4]triazolo[1,5-a]pyridin-7-yl)-azepan-1-yl-methanone]
22 | 24.2 | 42.4 | 1020 | CC1CCCCN1C(=O)c1cc(N)n2nc(-c3ccccn3)nc2c1 (stereo not drawn) [Example 418, (5-amino-2-pyridin-2-yl-[1,2,4]triazolo[1,5-a]pyridin-7-yl)-(2-methyl-piperidin-1-yl)-methanone]
23 | 35.5 | 44.9 | 1600 | CC1CCCN(C(=O)c2cc(N)n3nc(-c4ccccn4)nc3c2)C1 (stereo not drawn) [Example 419, (5-Amino-2-pyridin-2-yl-[1,2,4]triazolo[1,5-a]pyridin-7-yl)-(3-methyl-piperidin-1-yl)-methanone]
24 | 17.5 | 103 | 1810 | CCCN(CCC)C(=O)c1cc(N)n2nc(-c3ccccn3)nc2c1 [Example 420, 5-Amino-2-pyridin-2-yl-[1,2,4]triazolo[1,5-a]pyridine-7-carboxylic acid dipropylamide]
25 | 15.9 | 85.7 | 1360 | CCCCN(CC)C(=O)c1cc(N)n2nc(-c3ccccn3)nc2c1 [Example 421, 5-Amino-2-pyridin-2-yl-[1,2,4]triazolo[1,5-a]pyridine-7-carboxylic acid butyl-ethyl-amide]
26 | 21.4 | 17.4 | 372 | Nc1cc(C(=O)N2CCCCCCC2)cc2nc(-c3ccccn3)nn12 [Example 422, (5-Amino-2-pyridin-2-yl-[1,2,4]triazolo[1,5-a]pyridin-7-yl)-azocan-1-yl-methanone]
27 | 24.6 | 33.8 | 832 | CC1CC(C)CN(C(=O)c2cc(N)n3nc(-c4ccccn4)nc3c2)C1 (stereo not drawn) [Example 423, (5-Amino-2-pyridin-2-yl-[1,2,4]triazolo[1,5-a]pyridin-7-yl)-(3,5-dimethyl-piperidin-1-yl)-methanone]
28 | 17.7 | 49.6 | 878 | CCCN(CC1CC1)C(=O)c1cc(N)n2nc(-c3ccccn3)nc2c1 [Example 424, 5-Amino-2-pyridin-2-yl-[1,2,4]triazolo[1,5-a]pyridine-7-carboxylic acid cyclopropylmethyl-propyl-amide]
29 | 31.7 | 40.8 | 1290 | COC[C@H]1CCCN1C(=O)c1cc(N)n2nc(-c3ccccn3)nc2c1 [Example 425, (5-Amino-2-pyridin-2-yl-[1,2,4]triazolo[1,5-a]pyridin-7-yl)-(R-2-methoxymethyl-pyrrolidin-1-yl)-methanone]
